Data published in patent US20240401073A1, “ALS INHIBITOR HERBICIDE TOLERANT BETA VULGARIS MUTANTS” (KWS SAAT SE & Co. KGaA, priority 2021, published 2024).

Columns and labels:
[1] = test system: sugar beet mutant line carrying W569L; conditions: WO 2012/049268; cited from earlier work
[2] = test system: heterozygous BvALS_D371E mutants; assay type: in vivo, Beta vulgaris (sugar beet); conditions: greenhouse, 1× recommended field application concentration, treated when first true leaves appeared, rated 14 days after treatment; growing of first pair of true leaves as indicator
Description: (§1) The identified ALS mutants have been tested repeatedly in CONVISO® ONE treatments in concentrations used for field treatments as well as in treatment with the individual active ingredients of CONVISO® ONE, Foramsulfuron and Thiencarbazon-methyl, treatment with Pulsar® 40 (active ingredient: Imazamox), treatment with active ingredient Bispyribac, and treatment with Broadway® (active ingredients: Florasulam, Pyroxylam) (Table 1). All herbicide treatments has been conducted with amount corresponding to 1× recommended field application concentration: Offspring seed of both, a plant homozygous and heterozygous for BvALS_D371E mutation as well as the M0-background genotype were sown, cultivated in a greenhouse and transplanted to single pots after emergence. Herbicide treatments were performed when first true leaves appeared.
(§2) Tolerance ratings were taken 14 days after treatment. Growing of the first pair of true leaves was used as indicator for herbicide tolerance.

[3] = test system: homozygous BvALS_D371E mutants; assay type: in vivo, Beta vulgaris (sugar beet); conditions: greenhouse, 1× recommended field application concentration, treated when first true leaves appeared, rated 14 days after treatment; growing of first pair of true leaves as indicator
Description: as §1, §2

| Structure (SMILES) | herbicide tolerance of W569L mutant line [1] | Herbicide tolerance, Heterozygous mutants [2] | Herbicide tolerance, Homozygous mutants [3] |
| --- | --- | --- | --- |
| COC(=O)c1csc(C)c1S(=O)(=O)NC(=O)n1nc(OC)n(C)c1=O [thiencarbazone-methyl] | tolerant | tolerant | Tolerant |
| COc1cc(OC)nc(Oc2cccc(Oc3nc(OC)cc(OC)n3)c2C(=O)O)n1 [Bispyribac] |  | tolerant | Tolerant |
| COc1cc(OC)nc(NC(=O)NS(=O)(=O)c2cc(NC=O)ccc2C(=O)N(C)C)n1 [foramsulfuron] | tolerant | tolerant | Tolerant |
